In US11149037B2, “Pyrazole MAGL inhibitors” (H. Lundbeck A/S, priority 2017, dated 2021):

Experiments:
MAGL [1] = molecular target: MAGL (Homo sapiens (Human), UniProt Q99685); assay: In vitro competitive activity-based protein profiling, human proteomes (prefrontal cortex or PC3 cell membrane fractions); assay type: biochemical; details: human proteome; for inhibition at 1 µM: read-out: MAGL % inh. 1 μM (human)
Summary of the method: (§1)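 Activity of MAGL and FAAH was quantified from fluorescent gel band intensities. Beforehand, inhibitors at several concentrations competed against subsequent probe labelling (FP-Rh, JW912 or HT-01) in species-matched proteomes, each step 30 min at 37° C.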

MAGL [2] = molecular target: T1, MAGL (Mus musculus (Mouse), UniProt O35678); assay: In vitro competitive activity-based protein profiling, mouse proteomes (brain membrane fraction or cell lysates); assay type: biochemical; details: mouse proteome, read-out: MAGL % inh. 1 μM (mouse)
Summary of the method: as §1

MAGL [3] = molecular target: T1, MAGL; assay: Mouse brain proteomes from inhibitor treated mice (oral gavage, sacrificed 4 h after administration); assay type: in vivo; details: 5 mg/kg oral gavage
Method: Preparation of Mouse Brain Proteomes from Inhibitor Treated Mice.
Inhibitors were administered to wild-type C57B1/6J by oral gavage in a vehicle of polyethylene glycol. Each animal was sacrificed 4 h following administration and brain proteomes were prepared and analyzed according to previously established methods (See Niphakis, M. J., et al. (2011) ACS Chem. Neurosci. and Long, J. Z., et al. Nat. Chem. Biol. 5:37-44).

FAAH [4] = molecular target: FAAH (Homo sapiens (Human), UniProt O00519); assay: In vitro competitive activity-based protein profiling, human proteomes (prefrontal cortex or PC3 cell membrane fractions); assay type: biochemical; details: human proteome; for inhibition at 1 µM: read-out: FAAH % inh. 1 μM (human)
Summary of the method: as §1

FAAH [5] = molecular target: FAAH (Mus musculus (Mouse), UniProt O08914); assay: In vitro competitive activity-based protein profiling, mouse proteomes (brain membrane fraction or cell lysates); assay type: biochemical; details: mouse proteome, read-out: FAAH % inh. 1 μM (mouse)
Summary of the method: as §1

MAGL (Homo sapiens (Human), UniProt Q99685), sequence (Q99685 whole entry): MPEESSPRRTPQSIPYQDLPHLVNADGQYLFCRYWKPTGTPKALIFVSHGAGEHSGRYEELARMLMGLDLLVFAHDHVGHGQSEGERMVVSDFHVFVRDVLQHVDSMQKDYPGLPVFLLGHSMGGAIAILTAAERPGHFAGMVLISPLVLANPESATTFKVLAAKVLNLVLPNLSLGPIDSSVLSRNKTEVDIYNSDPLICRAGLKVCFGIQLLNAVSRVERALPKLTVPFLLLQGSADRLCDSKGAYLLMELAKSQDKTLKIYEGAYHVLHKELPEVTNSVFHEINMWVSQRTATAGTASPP
FAAH (Mus musculus (Mouse), UniProt O08914), sequence (O08914 whole entry): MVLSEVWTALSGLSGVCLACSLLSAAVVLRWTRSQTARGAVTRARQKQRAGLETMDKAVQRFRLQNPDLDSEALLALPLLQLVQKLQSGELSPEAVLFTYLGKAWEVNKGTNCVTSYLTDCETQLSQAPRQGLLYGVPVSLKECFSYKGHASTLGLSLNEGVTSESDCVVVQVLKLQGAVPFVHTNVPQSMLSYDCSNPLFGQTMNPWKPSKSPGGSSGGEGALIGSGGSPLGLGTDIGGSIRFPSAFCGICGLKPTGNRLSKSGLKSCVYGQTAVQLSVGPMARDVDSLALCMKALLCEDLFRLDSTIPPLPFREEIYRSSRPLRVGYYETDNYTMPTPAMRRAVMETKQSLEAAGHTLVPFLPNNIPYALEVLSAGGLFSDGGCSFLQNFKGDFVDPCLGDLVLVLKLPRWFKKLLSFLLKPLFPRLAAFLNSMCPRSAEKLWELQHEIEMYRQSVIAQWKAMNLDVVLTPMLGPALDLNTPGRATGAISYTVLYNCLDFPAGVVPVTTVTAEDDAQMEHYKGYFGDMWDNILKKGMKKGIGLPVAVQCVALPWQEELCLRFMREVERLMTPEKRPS
T1 sequence (O35678 whole entry): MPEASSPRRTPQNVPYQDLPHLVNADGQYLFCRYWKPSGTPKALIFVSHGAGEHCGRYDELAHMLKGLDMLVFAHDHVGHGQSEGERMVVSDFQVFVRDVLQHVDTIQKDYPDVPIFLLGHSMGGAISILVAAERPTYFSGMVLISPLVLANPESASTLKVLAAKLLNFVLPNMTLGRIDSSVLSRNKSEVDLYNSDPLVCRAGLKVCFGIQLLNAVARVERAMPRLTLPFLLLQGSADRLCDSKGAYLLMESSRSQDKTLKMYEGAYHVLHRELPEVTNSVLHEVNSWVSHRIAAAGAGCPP
FAAH (Homo sapiens (Human), UniProt O00519), sequence (O00519 whole entry): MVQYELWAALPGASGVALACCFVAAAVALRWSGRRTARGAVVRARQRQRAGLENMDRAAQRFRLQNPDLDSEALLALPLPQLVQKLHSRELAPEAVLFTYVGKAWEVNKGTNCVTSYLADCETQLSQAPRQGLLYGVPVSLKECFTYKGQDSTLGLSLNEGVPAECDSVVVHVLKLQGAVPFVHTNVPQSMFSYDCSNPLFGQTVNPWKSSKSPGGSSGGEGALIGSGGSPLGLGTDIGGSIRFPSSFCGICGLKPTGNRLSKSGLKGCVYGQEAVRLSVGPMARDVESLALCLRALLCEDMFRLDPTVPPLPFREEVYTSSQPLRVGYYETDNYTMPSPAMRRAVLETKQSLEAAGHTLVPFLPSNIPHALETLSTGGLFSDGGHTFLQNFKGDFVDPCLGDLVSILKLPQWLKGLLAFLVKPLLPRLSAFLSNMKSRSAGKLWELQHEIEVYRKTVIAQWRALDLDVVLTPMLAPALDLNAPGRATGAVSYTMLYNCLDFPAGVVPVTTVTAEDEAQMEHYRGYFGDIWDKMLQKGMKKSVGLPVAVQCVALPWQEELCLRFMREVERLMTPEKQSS

With `C[C@H]1CN(C(=O)n2ccc(NS(C)(=O)=O)n2)CCN1Cc1ccc(Cl)c(N2CCC(F)(F)CC2)c1` [Example 186, (S)-N-(1-(4-(4-Chloro-3-(4,4-difluoropiperidin-1-yl)benzyl)-3-methylpiperazine-1-carbonyl)-1H-pyrazol-3-yl)methanesulfonamide] the inhibition at 1 µM (MAGL [1]) was > 75%, the inhibition at 1 µM (MAGL [2]) was > 75% and the “MAGL % inh. 5 mg/kg (mouse)” value (MAGL [3]) was “A (% inhibition is greater than or equal to 75%)”.

For `C[C@H]1CN(C(=O)n2ccc(NS(C)(=O)=O)n2)CCN1Cc1ccc(Cl)c(N2CCC(C(F)(F)F)CC2)c1` [Example 188, (S)-N-(1-(4-(4-Chloro-3-(4-(trifluoromethyl)piperidin-1-yl)benzyl)-3-methylpiperazine-1-carbonyl)-1H-pyrazol-3-yl)methanesulfonamide], the inhibition at 1 µM (MAGL [1]) was > 75%, the inhibition at 1 µM (MAGL [2]) was > 75% and the “MAGL % inh. 5 mg/kg (mouse)” value (MAGL [3]) was “A (% inhibition is greater than or equal to 75%)”.

In the case of `C[C@H]1CN(C(=O)n2ccc(NS(C)(=O)=O)n2)CCN1Cc1ccc(Cl)c(N2CC[C@H](F)C2)c1` [Example 189, N-(1-((S)-4-(4-Chloro-3-((S)-3-fluoropyrrolidin-1-yl)benzyl)-3-methylpiperazine-1-carbonyl)-1H-pyrazol-3-yl)methanesulfonamide], the inhibition at 1 µM (MAGL [1]) is reported as > 75%, the inhibition at 1 µM (MAGL [2]) is reported as > 75% and the “MAGL % inh. 5 mg/kg (mouse)” value (MAGL [3]) is reported as “A (% inhibition is greater than or equal to 75%)”.

`CC(=O)Nc1ccn(C(=O)N2CCC3(CCN(Cc4cc(F)cc(Cl)c4)C3)CC2)n1` [Example 176, N-(1-(2-(3-Chloro-5-fluorobenzyl)-2,8-diazaspiro[4.5]decane-8-carbonyl)-1H-pyrazol-3-yl)acetamide] was tested, and the inhibition at 1 µM (MAGL [1]) was > 75%, the IC50 (MAGL [1]) was < 0.1 µM and the inhibition at 1 µM (MAGL [2]) was > 75%. The “MAGL % inh. 5 mg/kg (mouse)” value (MAGL [3]) was “A (% inhibition is greater than or equal to 75%)”.

For `CN(Cc1ccc(Cl)cc1N1CC2COCC2C1)C1(C)CCN(C(=O)n2ccc(NS(C)(=O)=O)n2)CC1` (centres unmarked) [Example 197, N-(1-(4-((4-Chloro-2-(tetrahydro-1H-furo[3,4-c]pyrrol-5(3H)-yl)benzyl)(methyl)amino)-4-methylpiperidine-1-carbonyl)-1H-pyrazol-3-yl)methanesulfonamide], the inhibition at 1 µM (MAGL [1]) was > 75%, the inhibition at 1 µM (MAGL [2]) was > 75% and the “MAGL % inh. 5 mg/kg (mouse)” value (MAGL [3]) was “D (% inhibition is greater than or equal to 0% and less than 25%)”.

In the case of `C[C@@H]1CN(C(=O)n2ccc(NS(C)(=O)=O)n2)CCN1Cc1ccc(C(F)(F)F)c(N2CC3COCC3C2)c1` (stereo partly drawn) [Example 182, N-(1-((3R)-3-Methyl-4-(3-(tetrahydro-1H-furo[3,4-c]pyrrol-5(3H)-yl)-4-(trifluoromethyl)benzyl)piperazine-1-carbonyl)-1H-pyrazol-3-yl)methanesulfonamide], the inhibition at 1 µM (MAGL [1]) is reported as > 75%, the IC50 (MAGL [1]) is reported as < 0.1 µM and the inhibition at 1 µM (MAGL [2]) is reported as > 75%. For the same molecule, the “MAGL % inh. 5 mg/kg (mouse)” value (MAGL [3]) was “D (% inhibition is greater than or equal to 0% and less than 25%)”.

For `C[C@H]1CN(C(=O)n2ccc(NS(C)(=O)=O)n2)CCN1Cc1ccc(C(F)(F)F)c(N2CCC(C(F)(F)F)CC2)c1` [Example 185, (S)-N-(1-(3-Methyl-4-(4-(trifluoromethyl)-3-(4-(trifluoromethyl)piperidin-1-yl)benzyl)piperazine-1-carbonyl)-1H-pyrazol-3-yl)methanesulfonamide], the inhibition at 1 µM (MAGL [1]) was > 75%, the inhibition at 1 µM (MAGL [2]) was > 75% and the “MAGL % inh. 5 mg/kg (mouse)” value (MAGL [3]) was “A (% inhibition is greater than or equal to 75%)”.

`CN(Cc1ccc(C(F)(F)F)cc1NCC(=O)O)C1(C)CCN(C(=O)n2ccc(NS(C)(=O)=O)n2)CC1` [Example 102, (2-((Methyl(4-methyl-1-(3-(methylsulfonamido)-1H-pyrazole-1-carbonyl)piperidin-4-yl)amino)methyl)-5-(trifluoromethyl)phenyl)glycine] gave an inhibition at 1 µM (FAAH [4]) of 0 to 25%, an inhibition at 1 µM (MAGL [1]) of 50 to 75% and an inhibition at 1 µM (FAAH [5]) of 0 to 25%. For the same molecule, the inhibition at 1 µM (MAGL [2]) was 0 to 25%.

`CS(=O)(=O)Nc1ccn(C(=O)N2CCC(N(Cc3ccc(C(F)(F)F)cc3N3CCCC3)C3CC3)CC2)n1` [Example 35, N-(1-(4-(cyclopropyl(2-(pyrrolidin-1-yl)-4-(trifluoromethyl)benzyl)amino)piperidine-1-carbonyl)-1H-pyrazol-3-yl)methanesulfonamide] was tested, and the inhibition at 1 µM (FAAH [4]) was 0 to 25%, the inhibition at 1 µM (MAGL [1]) was > 75% and the inhibition at 1 µM (FAAH [5]) was 0 to 25%. The inhibition at 1 µM (MAGL [2]) was > 75%.

With `CS(=O)(=O)Nc1ccn(C(=O)N2CCN(Cc3ccc(C(F)(F)F)c(N4CC[C@@H](F)C4)c3)CC2)n1` [Example 120, (R)-N-(1-(4-(3-(3-Fluoropyrrolidin-1-yl)-4-(trifluoromethyl)benzyl)piperazine-1-carbonyl)-1H-pyrazol-3-yl)methanesulfonamide] the inhibition at 1 µM (FAAH [4]) was 0 to 25%, the inhibition at 1 µM (MAGL [1]) was > 75% and the inhibition at 1 µM (FAAH [5]) was 0 to 25%. The inhibition at 1 µM (MAGL [2]) was > 75%.

In the case of `CC(=O)Nc1ccn(C(=O)N2CC3CN(Cc4cc(Cl)cc(C(F)(F)F)c4)CC3C2)n1` (centres unmarked) [Example 146, N-(1-(5-(3-Chloro-5-(trifluoromethyl)benzyl)octahydropyrrolo[3,4-c]pyrrole-2-carbonyl)-1H-pyrazol-3-yl)acetamide], the inhibition at 1 µM (FAAH [4]) is reported as > 75%, the IC50 (FAAH [4]) is reported as 1 to 10 µM and the inhibition at 1 µM (MAGL [1]) is reported as > 75%. The IC50 (MAGL [1]) was < 0.1 µM, the inhibition at 1 µM (FAAH [5]) was > 75% and the inhibition at 1 µM (MAGL [2]) was > 75%.

For `C[C@H]1CCCN1c1cc(CN2CCN(C(=O)n3ccc(NS(C)(=O)=O)n3)CC2)ccc1C(F)(F)F` [Example 151, (S)-N-(1-(4-(3-(2-Methylpyrrolidin-1-yl)-4-(trifluoromethyl)benzyl)piperazine-1-carbonyl)-1H-pyrazol-3-yl)methanesulfonamide], the inhibition at 1 µM (FAAH [4]) was 0 to 25%, the inhibition at 1 µM (MAGL [1]) was > 75% and the inhibition at 1 µM (FAAH [5]) was 0 to 25%. For the same molecule, the inhibition at 1 µM (MAGL [2]) was > 75%.

For `CS(=O)(=O)Nc1ccn(C(=O)N2CCC(Oc3ccc(C(F)(F)F)cc3-c3nccs3)CC2)n1` [Example 15, N-(1-(4-(2-(thiazol-2-yl)-4-(trifluoromethyl)phenoxy)piperidine-1-carbonyl)-1H-pyrazol-3-yl)methanesulfonamide], the inhibition at 1 µM (FAAH [4]) was 0 to 25%, the inhibition at 1 µM (MAGL [1]) was > 75% and the inhibition at 1 µM (FAAH [5]) was 25 to 50%. For the same molecule, the inhibition at 1 µM (MAGL [2]) was > 75%.

For `CS(=O)(=O)Nc1ccn(C(=O)N2CCC3(CCN(Cc4cccc(Cl)c4)C3)CC2)n1` [Example 163, N-(1-(2-(3-Chlorobenzyl)-2,8-diazaspiro[4.5]decane-8-carbonyl)-1H-pyrazol-3-yl)methanesulfonamide], the inhibition at 1 µM (FAAH [4]) was 0 to 25%, the inhibition at 1 µM (MAGL [1]) was > 75% and the inhibition at 1 µM (FAAH [5]) was 0 to 25%. For the same molecule, the inhibition at 1 µM (MAGL [2]) was 0 to 25%.

Molecule `CS(=O)(=O)Nc1ccn(C(=O)N2CCC3(CCN(Cc4cc(Cl)ccc4C(F)(F)F)C3)CC2)n1` [Example 46, N-(1-(2-(5-Chloro-2-(trifluoromethyl)benzyl)-2,8-diazaspiro[4.5]decane-8-carbonyl)-1H-pyrazol-3-yl)methanesulfonamide] has an inhibition at 1 µM (FAAH [4]) of 0 to 25%, an inhibition at 10 µM (MAGL [1]; 10 μM, read-out: MAGL % inh. (human) @ 10 μM) of 25 to 50% and an inhibition at 1 µM (FAAH [5]) of 0 to 25%. For the same molecule, the inhibition at 1 µM (MAGL [2]) was 0 to 25%.

In the case of `CC(=O)Nc1ccn(C(=O)N2CC3CN(Cc4cc(Cl)cc(C(C)(C)O)c4)CC3C2)n1` (centres unmarked) [Example 16, N-(1-(5-(3-chloro-5-(2-hydroxypropan-2-yl)benzyl)octahydropyrrolo[3,4-c]pyrrole-2-carbonyl)-1H-pyrazol-3-yl)acetamide], the inhibition at 1 µM (FAAH [4]) is reported as 25 to 50%, the inhibition at 1 µM (MAGL [1]) is reported as > 75% and the inhibition at 1 µM (FAAH [5]) is reported as 25 to 50%. The inhibition at 1 µM (MAGL [2]) was > 75%.

For `CC(=O)Nc1ccn(C(=O)N2CCC3(CCCN3Cc3cc4cc(Cl)cc(Cl)c4[nH]3)CC2)n1` [Example 13, N-(1-(1-((5,7-dichloro-1H-indol-2-yl)methyl)-1,8-diazaspiro[4.5]decane-8-carbonyl)-1H-pyrazol-3-yl)acetamide], the IC50 (FAAH [4]) was 1 to 10 µM, the IC50 (MAGL [1]) was < 0.1 µM and the inhibition at 1 µM (FAAH [5]) was 25 to 50%. For the same molecule, the inhibition at 1 µM (MAGL [2]) was > 75%.

With `CS(=O)(=O)Nc1ccn(C(=O)N2CCC3(CCN(Cc4ccc(N5CCCC5)c(C(F)(F)F)c4)C3)CC2)n1` [Example 72, N-(1-(2-(4-(Pyrrolidin-1-yl)-3-(trifluoromethyl)benzyl)-2,8-diazaspiro[4.5]decane-8-carbonyl)-1H-pyrazol-3-yl)methanesulfonamide] the inhibition at 1 µM (FAAH [4]) was 0 to 25%, the inhibition at 1 µM (MAGL [1]) was > 75% and the inhibition at 1 µM (FAAH [5]) was 50 to 75%. For the same molecule, the inhibition at 1 µM (MAGL [2]) was 25 to 50%.

In the case of `CS(=O)(=O)Nc1ccn(C(=O)N2CCN(Cc3cc4cc(Cl)ccc4s3)CC2)n1` [Example 66, N-(1-(4-((5-Chlorobenzo[b]thiophen-2-yl)methyl)piperazine-1-carbonyl)-1H-pyrazol-3-yl)methanesulfonamide], the inhibition at 1 µM (FAAH [4]) is reported as 0 to 25%, the inhibition at 1 µM (MAGL [1]) is reported as > 75% and the inhibition at 1 µM (FAAH [5]) is reported as 0 to 25%. For the same molecule, the inhibition at 1 µM (MAGL [2]) was > 75%.

For `CS(=O)(=O)Nc1ccn(C(=O)N2CCN(Cc3ccc(C(F)(F)F)c(-c4nnco4)c3)CC2)n1` [Example 116, N-(1-(4-(3-(1,3,4-Oxadiazol-2-yl)-4-(trifluoromethyl)benzyl)piperazine-1-carbonyl)-1H-pyrazol-3-yl)methanesulfonamide], the inhibition at 1 µM (FAAH [4]) was 0 to 25%, the inhibition at 1 µM (MAGL [1]) was > 75% and the inhibition at 1 µM (FAAH [5]) was 0 to 25%. It also gave an inhibition at 1 µM (MAGL [2]) of 50 to 75%.
